Data on 28 compounds can be found in PubChem BioAssay (NCI).

Where “and” joins values, the source holds several entries; their conditions need not be identical. Identical values can stand only once.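 Results reflect a 48-hour exposure of cells in 96-well plates to compound at five concentrations. GI50 marks 50% less growth. TGI: total growth inhibition.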

One experiment relates to MOLT-4 leukemia. In words: DTP human tumour cell line panel, 48 h.
Usually TGI stands for the concentration at which net growth stops. A high value points to less potent growth arrest. Regarding `c1ccc(SC2CCSc3ccccc3C2Sc2ccccc2)cc1` (centres undefined), the concentration for total growth inhibition (TGI) is > 100 µM.
Still for that read-out and setting: the result for `COC(=O)[C@]1(C)CCCC2(C)C1CC[C@H]1C=C(C)[C@H]3CCC12C3` (some centres undefined) reads > 100 µM; that for `O=C(Nc1cc(Cl)ccc1Cl)c1cc2cccc(Cl)c2oc1=O`, > 100 µM; that for `O=c1n(-c2ccccc2)c(=O)n2n1C1C=CC2C2C(C1)C2(Cl)Cl` (centres undefined), > 100 µM.
Same read-out and setting: under `Cc1ccc(Cn2c(C)nc3c2C(=O)c2ccccc2C3=O)cc1` stands > 100 µM.
On the same count and under the same terms, the result for `CCOC(=O)C(C)(C)Oc1ccc2c(C)c(-c3ccc(Cl)cc3)c(=O)oc2c1` reads > 100 µM.
`Cc1c(Cl)cccc1N1C(=O)C(Cl)=C(Cl)C1=O` gave a total growth inhibition concentration (TGI) of 28.1 µM.
On the same count and under the same terms, the result for `COc1ccc(NC(=O)/C(N=O)=C(/C)O)cc1` reads > 100 µM.
As usually defined, the GI50 is the concentration at which growth is held to half of that of the control. Take `COc1cccc(/C=N/[N-]C(=O)c2ccncc2)c1[O-].[Cu+2].[OH3+]`: the GI50 is 35.2 µM and the TGI is > 100 µM.
With `CCc1c(OC(C)=O)c2c(NC3OC(COC(C)=O)C(OC(C)=O)C(OC(C)=O)C3OC(C)=O)nc(OC)nc2oc1=O` (centres undefined), the TGI is > 100 µM.
Same read-out and setting: the result for `O=C(NC(=O)c1cn(CCNCCO)c(=O)[nH]c1=O)OCc1ccccc1` reads > 100 µM; that for `O=[N+]([O-])c1ccc(-n2nnc(C3=NCCN3)c2-c2ccc(Cl)cc2)cc1`, > 100 µM.
The same measure, in the same setting: the result for `O=C(c1ccc(Cl)cc1)c1cnc(Nc2ccccc2Cl)s1` reads > 100 µM; that for `CCC1C2C=CC(CC2)N1S(=O)(=O)c1ccc(C)cc1` (centres undefined), > 100 µM.
Still for that read-out and setting: the result for `CCOc1ccc(N2C(=O)/C(=C/c3ccc(N(CCC#N)CCC#N)cc3)N=C2c2cc([N+](=O)[O-])ccc2Cl)cc1` reads 13.8 µM; that for `COc1ccc(-c2cc(-c3ccccc3)c(C#N)c(=O)n2C2OC(CO)C(O)C(O)C2O)cc1` (centres undefined), > 100 µM.
As to `CCOC(=O)C1(c2ccccc2)CCC(=O)CC1`, the TGI was > 100 µM.
Still for that read-out and setting: the result for `O=C(N/N=C1/C(=O)N(c2ccc(Cl)cc2Cl)C(=O)C(=O)C1c1nc2ccccc2o1)c1ccccc1O` (centres undefined) reads > 100 µM; that for `CC(=O)O[C@H]1CCC2[C@@H]3CCC4=C(O)c5nocc5C[C@]4(C)C3CC[C@@]21C` (some centres undefined), > 100 µM; that for `O=C(O)CSc1n[nH]c(-c2ccccc2)n1`, > 100 µM.
For the compound `O=c1cc2oc3cc(O)c(O)cc3c(-c3ccccc3O)c-2cc1O`, the GI50 was 14.9 µM and the TGI is > 100 µM.
Consider `C[C@H]1Oc2cc(cnc2N)-c2c(nn(C)c2C#N)CN(C)C(=O)c2ccc(F)cc21`, for which the GI50 is > 93.7 µM and the TGI was > 100 µM.
Regarding `COc1ccccc1N1CCN(CCCn2c(=O)c3c(OC)nc(C)cc3c(=O)n2-c2ccccc2)CC1`, the GI50 was > 100 µM and the TGI is > 100 µM.
Turning to `Cc1ccc(-c2nc3ccc([N+](=O)[O-])cc3[nH]2)cc1`, the concentration for total growth inhibition (TGI) was > 100 µM.
Same read-out and setting: the result for `O=C(O)[C@H](NS(=O)(=O)c1ccc2ccccc2c1)c1ccccc1` reads > 100 µM.
Consider `CC(=O)c1cc2c(o1)C(=O)c1ccccc1C2=O`, for which the GI50 was 0.57 µM and 0.865 µM; the TGI is 1.85 µM and 3.65 µM.
For the compound `CCN(CC)c1nc(-c2ccc(Cl)cc2Cl)nc2ccccc12`, the GI50 is 42.9 µM and the total growth inhibition concentration (TGI) is > 100 µM.
As to `Cc1nc2ccccc2nc1-c1ccc(N=[N+]([O-])c2ccc(-c3nc4ccccc4nc3C)cc2)cc1`, the TGI is > 100 µM.

In another experiment the test system is SK-MEL-2 melanoma. In words: DTP human tumour cell line panel, 48 h.
`O=c1n(-c2ccccc2)c(=O)n2n1C1C=CC2C2C(C1)C2(Cl)Cl` (centres undefined): the TGI was > 100 µM.
Take `Cc1ccc(Cn2c(C)nc3c2C(=O)c2ccccc2C3=O)cc1`: the TGI stood at 45.6 µM.
The same measure, in the same setting: the result for `CCOC(=O)C(C)(C)Oc1ccc2c(C)c(-c3ccc(Cl)cc3)c(=O)oc2c1` reads > 100 µM; that for `Cc1c(Cl)cccc1N1C(=O)C(Cl)=C(Cl)C1=O`, > 100 µM; that for `COc1ccc(NC(=O)/C(N=O)=C(/C)O)cc1`, > 100 µM.
With `COc1cccc(/C=N/[N-]C(=O)c2ccncc2)c1[O-].[Cu+2].[OH3+]`, the GI50 was > 100 µM and the TGI was > 100 µM.
Take `CCc1c(OC(C)=O)c2c(NC3OC(COC(C)=O)C(OC(C)=O)C(OC(C)=O)C3OC(C)=O)nc(OC)nc2oc1=O` (centres undefined): the TGI was > 100 µM.
`O=[N+]([O-])c1ccc(-n2nnc(C3=NCCN3)c2-c2ccc(Cl)cc2)cc1`: the TGI is > 100 µM.
Consider `O=C(c1ccc(Cl)cc1)c1cnc(Nc2ccccc2Cl)s1`, for which the TGI was 30.7 µM.
In turn, `CCC1C2C=CC(CC2)N1S(=O)(=O)c1ccc(C)cc1` (centres undefined) displayed a TGI of 28.3 µM.
Same read-out and setting: the result for `CCOc1ccc(N2C(=O)/C(=C/c3ccc(N(CCC#N)CCC#N)cc3)N=C2c2cc([N+](=O)[O-])ccc2Cl)cc1` reads > 100 µM.
Same read-out and setting: under `CCOC(=O)C1(c2ccccc2)CCC(=O)CC1` stands > 100 µM.
On the same count and under the same terms, under `O=C(N/N=C1/C(=O)N(c2ccc(Cl)cc2Cl)C(=O)C(=O)C1c1nc2ccccc2o1)c1ccccc1O` (centres undefined) stands > 100 µM; under `CC(=O)O[C@H]1CCC2[C@@H]3CCC4=C(O)c5nocc5C[C@]4(C)C3CC[C@@]21C` (some centres undefined), > 100 µM; under `O=C(O)CSc1n[nH]c(-c2ccccc2)n1`, > 100 µM.
Take `O=c1cc2oc3cc(O)c(O)cc3c(-c3ccccc3O)c-2cc1O`: the GI50 is 36.8 µM and the TGI was > 100 µM.
The like results for `C[C@H]1Oc2cc(cnc2N)-c2c(nn(C)c2C#N)CN(C)C(=O)c2ccc(F)cc21` were, in that order, 78 µM and > 100 µM.
In the same order, the values of `COc1ccccc1N1CCN(CCCn2c(=O)c3c(OC)nc(C)cc3c(=O)n2-c2ccccc2)CC1` are > 100 µM and > 100 µM.
With `Cc1ccc(-c2nc3ccc([N+](=O)[O-])cc3[nH]2)cc1`, the TGI is > 100 µM.
On the same count and under the same terms, under `O=C(O)[C@H](NS(=O)(=O)c1ccc2ccccc2c1)c1ccccc1` stands > 100 µM.
For the compound `CC(=O)c1cc2c(o1)C(=O)c1ccccc1C2=O`, the GI50 is 0.42 µM and 0.548 µM; the TGI was 1.29 µM and 2 µM.
For `CCN(CC)c1nc(-c2ccc(Cl)cc2Cl)nc2ccccc12`, the GI50 was > 41.8 µM and the TGI was > 67.7 µM.
For `Cc1nc2ccccc2nc1-c1ccc(N=[N+]([O-])c2ccc(-c3nc4ccccc4nc3C)cc2)cc1`, the TGI is > 100 µM.

The subject of a further experiment is KM20L2 colon. In words: DTP human tumour cell line panel, 48 h.
Turning to `c1ccc(SC2CCSc3ccccc3C2Sc2ccccc2)cc1` (centres undefined), the TGI is > 100 µM.
